Patent publication US20090041719A1, “Method for screening therapeutic agent for glomerular disorder” (priority 2006, published 2009)
“And” between values parts separate entries of the source, which are not always exact repeats. Equal values may be shown once.

How the values were obtained:
[1] = test system: rat unilateral ureteral obstruction release model; assay: Rat unilateral ureteral obstruction release model: glomerular and tubulointerstitial lesions, Asc-1+ cells; format: in vivo, SD rat;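 on Tubulointerstitial lesion: atrophy of tubules associated with dilatation of tubules (score): ± very light + light ++ moderate +++ high change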;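 on Tubulointerstitial lesion: fibrosis of interstitial tissue (score): ± very light + light ++ moderate +++ high change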;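 on Tubulointerstitial lesion: thickness of basement membrane (score): ± very light + light ++ moderate +++ high change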
Text: An experimental model was produced in accordance with the method devised and established by Ishibashi (Michio Ishibasi et al., Japanese Journal of Nephrology 42: 248, 2000), using a 8 to 9-week-old male SD rat weighing about 280 g. […] On day 14 after obstruction, the obstruction was released, and the urinary tract was reconstructed using a cuff. That is, 14 days later, the ligated ureteral obstruction part was partially removed, and a 25 gauge polyethylene tube (made by Nippon Sherwood) as a cuff was inserted from the lower normal ureteral stump and placed in the lumen. Next, the cuff was placed also in the expanded upper ureter, and both parts were ligated for fixation with a 7-0 nylon suture to reconstruct the urinary tract. At the same time, the right kidney was removed. The weight was measured after obstruction release, and the blood was collected on days 2, 5, and 7 after release for serum creatinine determination. On day 7, the rat was sacrificed under anesthesia and the left obstruction release kidney was removed. The weight of the removed kidney was measured, and the kidney pathomorphological examination was performed.
The biological effects of the test compound were studied in vivo using the model obtained in the above procedure 1). The test compound in the form of bulk powder was dissolved in sterilized physiologic saline together with gum arabic, where the concentration of the gum arabic was adjusted to 5% and the concentration of the test compound was adjusted to 30 mg/ml. The amount of 30 mg/kg was subcutaneously administered every day. Daily administration was continued for 21 days during 14 days of obstruction and 7 days after obstruction release. For controlled comparison, the solvent of 5% gum arabic was administered alone.
On day 22 from the administration of the test compound, the rat was sacrificed under anesthesia, and the left obstruction release kidney was removed and neutral formalin fixed. The fixed renal tissue embedded in paraffin was sliced into 4-micrometer-thick pieces for examination.
The tissue section was observed under a microscope in order to count the number of glomeruli and the number of glomeruli having a lesion (expansion of a tubular pole associated with swollen Bowman's capsule epithelial cells or hypertrophy of a Bowman's capsule basal membrane) in the field of view, and the number of glomeruli having the lesion (referred to as “lesioned glomerulus”) per 50 glomeruli was calculated.
As for the effectiveness to improve of glomerular lesions, when the number of lesioned glomeruli per 50 glomeruli was reduced to less than or equal to half the average number of those of the control group, it was determined as improved.
An affinity-purified anti-rat Asc-1 polyclonal antibody (rabbit) was prepared as follows: that is, in order to prepare an anti-Asc-1 peptide polyclonal antibody (rabbit), an oligopeptide (PSPLPITDKPLKTQC (SEQ. ID NO: 4)) corresponding to amino acid residues of 517-530 of Asc-1 was synthesized (see J Biol Chem (2000); 275: 9690-9698), keyhole limpet hemocyanine was bound to the C-terminal cysteine as an adjuvant, and […] was immunized therewith. The serum was collected on days 7 and 14 from the immunization. The serum was concentrated by means of an adsorption-dissociation operation using an affinity column to which an oligopeptide corresponding to amino acid residues of 517-530 of Asc-1 was bound in order to obtain an affinity-purified antibody having a protein content of 0.5 mg/ml. As for immunopathological examination, paraffin rat […] diluted with PBS to the optimal concentration was used.
The immune tissue staining was performed based on the protocol of Ventana HX system bench mark (Ventana Japan K.K., Tokyo) including the automated immunostaining device manufactured by Ventana Japan K.K. After deparaffinization, the tissue section was heat-treated at 100° C. for 1 hour. […]

[2] = test system: rBAT; assay: rBAT on large-cell fraction of interferon γ-stimulated THP-1, peak value by FACScan; format: cell-based, human
Description: The same procedures as in Experimental Example 2 were taken except the following conditions: human leukemia culture cell line THP-1 was used instead of the human peripheral blood mononuclear cells; the final addition concentration of the test compound (6-2) was set to 100 nM; fetal bovine serum was used instead of the human AB serum; and human recombinant interferon γ (PHP050, Serotec) (final concentration: 100 ng/ml) was used instead of LPS. Also, using rabbit anti-human 4F2hc polyclonal antibodies (see Biol Pharm Bull 30: 415-422, 2007) as the primary antibody, the peak value of HAT expressed on the fraction of large-cells in human leukemia culture cell strain THP-1, compared with those not stimulated with LPS, was measured. As a control, the one with no test-compound (DMSO alone) was used, and the rabbit anti-human rBAT polyclonal antibodies were obtained in the same manner as in Experimental Example 2.

[3] = test system: glomerular lesions; renal tubulointerstitial lesions; conditions: International Publication WO 2004/024185 and 01/72730 pamphlets; cited from earlier work
[4] = group average ± standard deviation
[5] = individual animal, 30 mg/kg s.c. daily for 21 days, 30 mg/kg
[6] = individual animal, points: ± 0.5, + 1, ++ 2, +++ 3

In the case of `O=C1CCC(F)(C(=O)OCc2ccccc2)O1` (stereo not shown) [Compound (6-2)], the “Glomerular lesion: number of lesioned glomeruli per 50 glomeruli, expansion of tubular pole associated with swollen Bowman's capsule epithelial cells” value [1, 4] is reported as 3 ± 2 per 50 glomeruli, the “Glomerular lesion: number of lesioned glomeruli per 50 glomeruli, hypertrophy of Bowman's capsule basal membrane” value [1, 4] is reported as 7 ± 2 per 50 glomeruli and the “Number of Asc-1+ cells per 50 glomeruli” value [1, 4] is reported as 8.01 ± 1.96 per 50 glomeruli. For the same molecule, the “Tubulointerstitial lesion: atrophy of tubules associated with dilatation of tubules (score)” value [1, 4] was 0.90 ± 0.3, the “Tubulointerstitial lesion: fibrosis of interstitial tissue (score)” value [1, 4] was 1.5 ± 0.6 and the “Tubulointerstitial lesion: thickness of basement membrane (score)” value [1, 4] was 1.5 ± 0.6. For the same molecule, the “Tubulointerstitial lesion: total score” value [1, 4] was 3.9 ± 1.0, the “Glomerular lesion: number of lesioned glomeruli per 50 glomeruli, expansion of tubular pole associated with swollen Bowman's capsule epithelial cells” value [1, 5] was 2 per 50 glomeruli (2×) and 5 per 50 glomeruli and 1 per 50 glomeruli and the “Glomerular lesion: number of lesioned glomeruli per 50 glomeruli, hypertrophy of Bowman's capsule basal membrane” value [1, 5] was 6 per 50 glomeruli and 9 per 50 glomeruli and 5 per 50 glomeruli and 8 per 50 glomeruli. The “Number of Asc-1+ cells per 50 glomeruli” value [1, 5] was 9.40 per 50 glomeruli and 9.05 per 50 glomeruli and 5.12 per 50 glomeruli and 8.47 per 50 glomeruli, the “Improvement of glomerular lesion” value ([1]; individual animal, Yes = lesioned glomeruli per 50 glomeruli reduced to less than or equal to half the control average) was “Yes (3×) and No” and the “Improvement of tubulointerstitial lesion” value ([1]; individual animal, Yes = reduced to less than or equal to half the control average) was “No”. For the same molecule, the “Tubulointerstitial lesion: atrophy of tubules associated with dilatation of tubules (score)” value [1, 6] was 1 (3×) and 0.5, the “Tubulointerstitial lesion: fibrosis of interstitial tissue (score)” value [1, 6] was 1 (2×) and 2 (2×) and the “Tubulointerstitial lesion: thickness of basement membrane (score)” value [1, 6] was 1 (2×) and 2 (2×). The “Tubulointerstitial lesion: total score” value ([1]; individual animal, sum of the three scores) was 3 (2×) and 4.5 and 5, the “glomerular lesion (in words)” value ([1]; summary of Table 5) was “selectively reduced” and the “uriniferous tubule lesion (in words)” value ([1]; summary of Table 5) was “not reduced”. For the same molecule, the “Asc-1 positive cells in the glomeruli (in words)” value ([1]; versus control group) was “increased more significantly than in the control group”, the “Change in HAT expressed on large-cell fraction of THP-1 (peak value by FACScan), rBAT” value ([2]; THP-1 + human recombinant interferon γ 100 ng/ml, test compound 100 nM, solvent control 55) was 50 and the “amount of rBAT (in words)” value ([2]; THP-1 + interferon γ, summary of Table 4) was “without any influence”. For the same molecule, the “known action on glomerular lesions” value [3] was “selectively inhibit the glomerular lesions”.
